Results from patent US11262349B2, “Multiplexed immune cell assays on a micropillar/microwell chip platform” (Cleveland State University, priority 2017, dated 2022).

Assays:
[1] = tested on: CD40 on RAW 264.7 cells; assay: Surface biomarker expression (CD40) in immune cells on micropillar/microwell chip; assay type: cell-based, mouse; conditions: 3D alginate/Matrigel, glycopolymers at 1250 μg/mL, LPS at 10 μg/mL, 48 hours, vs growth medium control (FIG. 15A)
Description: (§1) FIGS. 8, 14, and 15 are discussed in Example 5.
(§2) The micropillars of a 384-pillar micropillar chip were coated with 0.01% PMA-OD. Then 16.6 mM BaCl2/0.0033% PLL were printed onto the micropillars using a […].
(§3) An immune-cell suspension was prepared using 0.75% alginate and 0.5 mg/mL Matrigel and then printed onto the coated micropillars.
(§4) Growth media was then printed into the microwells on a microwell chip using a […].
(§5) The micropillar chip was then sandwiched with the microwell chip for 30 minutes and incubated for 24 hours with fresh growth media.
(§6) Next, various glycopolymers at 1250 μg/mL (polyacrylamide, N-glucosyl polymer, N-mannosyl polymer, N-lactosyl polymer, N-α2,3-sialolactosyl polymer, and N-α2,6-sialolactosyl polymer) and LPS at 10 μg/mL [701] were printed into the microwells.
(§7) The micropillar chip was then sandwiched with the microwell plate containing glycopolymers and LPS [701] for 48 hours. The micropillar chip was then rinsed with TBS [801] for 10 minutes, then incubated with ice-cold methanol and acetone (1:1 ratio) for 10 minutes at room temperature. The micropillar chip was then rinsed with TBS twice for 5 minutes and incubated with blocking buffer (SuperBlock) for 1 hour at room temperature. […]

[2] = tested on: CD80 on RAW 264.7 cells; assay: Surface biomarker expression (CD80) in immune cells on micropillar/microwell chip; assay type: cell-based, mouse; conditions: 3D alginate/Matrigel, glycopolymers at 1250 μg/mL, LPS at 10 μg/mL, 48 hours, vs growth medium control (FIG. 15B)
Description: as §1, §2, §3, §4, §5, §6, §7

[3] = tested on: Class II MHC on RAW 264.7 cells; assay: Surface biomarker expression (class II MHC) in immune cells on micropillar/microwell chip; assay type: cell-based, mouse; conditions: 3D alginate/Matrigel, glycopolymers at 1250 μg/mL, LPS at 10 μg/mL, 48 hours, vs growth medium control (FIG. 15D)
Description: as §1, §2, §3, §4, §5, §6, §7

[4] = tested on: TNF-α production by RAW 264.7 cells; assay: Cytokine secretion (TNF-α) by immune cells on micropillar/microwell chip, 32-plex mouse cytokine array; assay type: cell-based; conditions: glycopolymers at 1250 μg/mL, LPS at 10 μg/mL, 24 hours, cell supernatant (FIG. 16A)
Description: (§8) FIGS. 9 and 16A-D are discussed in this example.
(§9) The micropillars on a micropillar chip were coated with 0.01% PMA-OD. Then 16.6 mM BaCl2/0.0033% PLL was printed on the micropillars using a microarray spotter.
(§10) An immune-cell suspension was prepared using RAW 264.7 cells, 0.75% alginate and 0.5 mg/mL Matrigel and then printed onto the coated micropillars. 60 nL spots of the immune-cell suspension were printed onto a micropillar chip with dried PLL-BaCl2 at a density of 3×10^6 cells/mL. After 2 minutes of alginate gelation and 24-hour incubation with a microwell chip containing 950 nL of cell growth media, the micropillar chip containing immune cells was sandwiched with a new microwell chip containing 950 nL of glycopolymers (polyacrylamide, N-glucosyl polymer, N-galactosyl polymer, N-mannosyl polymer, N-GlcNAc polymer, N-lactosyl polymer, N-α2,3 sialolactosyl polymer, and Nα2,6-sialolactosyl polymer) at 1250 μg/mL and LPS at 10 μg/mL, and incubated at 37° C. and 5% CO2 for 24 hours.
(§11) Separately, immune cells were cultured in 96-well plates in growth media and 10 μg/mL LPS for 24 hours as negative and positive controls for 2D monolayer culture.
(§12) The cell supernatants for all conditions were collected from the microwell chip and the 96-well plate, centrifuged, and analyzed for 32-plex mouse cytokine array measurements. […]

[5] = tested on: IL-6 production by RAW 264.7 cells; assay: Cytokine secretion (IL-6) by immune cells on micropillar/microwell chip, 32-plex mouse cytokine array; assay type: cell-based; conditions: glycopolymers at 1250 μg/mL, LPS at 10 μg/mL, 24 hours, cell supernatant (FIG. 16B)
Description: as §8, §9, §10, §11, §12

[6] = tested on: IL-10 production by RAW 264.7 cells; assay: Cytokine secretion (IL-10) by immune cells on micropillar/microwell chip, 32-plex mouse cytokine array; assay type: cell-based; conditions: glycopolymers at 1250 μg/mL, LPS at 10 μg/mL, 24 hours, cell supernatant (FIG. 16D)
Description: as §8, §9, §10, §11, §12

In the case of lipopolysaccharide [LPS], the “expression level of CD40 marker” value [1] is reported as “significantly enhanced”, the “expression level of CD80 marker” value [2] is reported as “enhanced” and the “expression level of class II MHC marker” value [3] is reported as “significantly enhanced”. The TNF-α production [4] was “significantly stimulated”, the IL-6 production [5] was “significantly stimulated” and the IL-10 production [6] was “significantly stimulated”.
